Here are results for one substance from patent US20240009191A1, “METHOD AND COMPOSITION FOR THE TREATMENT OF DISEASE” (DIMERIX BIOSCIENCE PTY LTD, priority 2019, published 2024).

What all share (assay type): cell-based
In experiment [1] the target is T1, CXCR2 (Homo sapiens, UniProt P25025).
T1 sequence (P25025 1-360): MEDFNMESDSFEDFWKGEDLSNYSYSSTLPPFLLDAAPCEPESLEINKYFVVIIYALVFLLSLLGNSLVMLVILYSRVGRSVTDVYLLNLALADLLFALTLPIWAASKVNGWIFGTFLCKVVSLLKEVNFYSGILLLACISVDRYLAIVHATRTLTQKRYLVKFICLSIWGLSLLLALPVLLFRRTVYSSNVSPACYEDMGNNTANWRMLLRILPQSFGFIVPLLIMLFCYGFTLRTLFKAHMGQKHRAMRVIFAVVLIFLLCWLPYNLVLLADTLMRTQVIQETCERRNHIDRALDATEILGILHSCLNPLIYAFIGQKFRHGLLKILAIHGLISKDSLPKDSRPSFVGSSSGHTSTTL
Kind of experiment: BRET Gi coupling, CXCR2/Rluc8 and Venus/mGsi without HA-AT1R, HEK293FT cells. To be noted: 100 nM CXCL8, 1 μM AngII, FIG. 1A. The method, then:
(§1) HEK293FT cells were seeded in 6-well plates at a density of approximately 700,000 cells/well and maintained at 37° C., 5% CO2 in Complete Media (DMEM containing 0.3 mg/ml glutamine, 100 IU/ml penicillin and 100 μg/ml streptomycin (Gibco/Thermo Fisher)) supplemented with 10% fetal calf serum (FCS; Bovogen). Transient transfections were carried out 24 h after seeding using FuGene6™ (Promega) according to manufacturer instructions. 24 h post-transfection, cells were washed with PBS, detached using 0.05% trypsin/0.53 mM EDTA, resuspended in HEPES-buffered phenol red free Complete Media containing 5% FCS and added to a poly-L-lysine-coated white 96-well microplate (Greiner Bio-One). 48 h post-transfection, bioluminescence resonance energy transfer (BRET) assays were carried out following pre-incubation of cells with EnduRen™ (Promega) at a final concentration of 30 μM, at 37° C., 5% CO2 for 2 h. BRET measurements were taken at 37° C. using the LUMlstar™ or CLARIOstar™ (BMG Labtech). Filtered light emissions were measured for 1 s in each of the ‘donor wavelength window’ (460-490 nm for LUMlstar™ or 410-490 nm for CLARIOstar™) and ‘acceptor wavelength window’ (520-550 nm for LUMlstar™ or 520-620 nm for CLARIOstar™).
The BRET signal observed between interacting proteins is normalized by subtracting the background BRET ratio. […]

For experiment [2], the target named is T2, AT1R and CXCR2 (Homo sapiens, UniProt P25025+P30556).
T2 sequence (P30556 1-359): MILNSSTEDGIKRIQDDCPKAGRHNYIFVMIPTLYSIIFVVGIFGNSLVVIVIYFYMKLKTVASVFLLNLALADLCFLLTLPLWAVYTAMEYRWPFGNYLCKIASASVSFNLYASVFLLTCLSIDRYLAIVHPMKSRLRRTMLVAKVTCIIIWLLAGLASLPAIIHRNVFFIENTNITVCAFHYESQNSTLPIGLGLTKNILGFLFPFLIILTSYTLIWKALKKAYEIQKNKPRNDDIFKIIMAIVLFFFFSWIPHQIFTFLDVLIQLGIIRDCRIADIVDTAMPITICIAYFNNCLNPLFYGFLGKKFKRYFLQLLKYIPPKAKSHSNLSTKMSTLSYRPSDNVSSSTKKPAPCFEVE
T2 sequence (P25025 1-360): T1 sequence (P25025 1-360)
Nature of the experiment: IP1 accumulation, HEK293 cells stably-expressing CXCR2 and transiently-transfected with AT1R.

Experiment [3] addresses T3, AT1R (Homo sapiens, UniProt P30556).
T3 construct: expressed in transfected cells; host or cells: HEK293FT
T3 sequence (P30556 1-359): T2 sequence (P30556 1-359)
Nature of the experiment: BRET trafficking of AT1R/Rluc8 to Venus/Kras or Venus/Rab markers, absence of CXCR2. To be noted: 100 nM CXCL8, 1 μM AngII. Here is the method: as §1
The BRET signal observed between interacting proteins is normalized by subtracting the background BRET ratio. This can be done in one of two ways (see Pfleger et al. (2006) Cell Signal 18:1664-1670; Pfleger et al. (2006) Nat Protoc 1:336-344): 1) the ratio of the 520-550 nm or 520-620 nm emission over the 460-490 nm or 410-490 nm emission for a cell sample containing only the donor construct is subtracted from the same ratio for a sample containing the interacting acceptor and donor fusion proteins; 2) the ratio of the 520-550 nm or 520-620 nm emission over the 460-490 nm or 410-490 nm emission for a cell sample treated with vehicle is subtracted from the same ratio for a second aliquot of the same cell sample treated with ligand. In the following examples, the second calculation will be used and the signal is described as ligand-induced BRET′. Furthermore, for data shown in FIGS. 4 to 20, all data points in a given set are corrected relative to the final data point prior to agonist treatment, which is fixed to zero. In keys on FIGS. 7 to 20, “>” means “followed by after 50 minutes”, with agonists added at time zero on the x-axes.
Referring now to FIG. 3 (published in Tiulpakov et al (2016) Mol. Endocrinol. 30, 889-904), the proximity of Rluc8-tagged receptors to Venus-tagged Kras plasma membrane marker, or Venus-tagged Rabs specific for distinct subcellular locations, is monitored in live cells and in real-time using BRET. The Rab markers are: Venus/Rab5 (5) for early endosomes; Venus/Rab4 (4) for early endosome recycling; Venus/Rab11a (11) for recycling endosomes; Venus/Rab7 (7) for late endosomes/lysosomes; Venus/Rab9 (9) for late endosome trafficking to the trans-Golgi network; Venus/Rab1 (1) for endoplasmic reticulum trafficking to the cis-Golgi; Venus/Rab6 (6) for Golgi apparatus and trans-Golgi network; or Venus/Rab8 (8) for trans-Golgi network to plasma membrane.

On to Angiotensin II [AngII], for which the “ligand-induced BRET signal, CXCR2/Rluc8 and Venus/mGsi” value in experiment [1] is “did not result in an increase”. For the same substance, in experiment [2], the “Rmax, IP1 accumulation” value was 209 nM. For the same substance, in experiment [3] (Golgi apparatus to trans-Golgi network, FIG. 5I), the “proximity of AT1R/Rluc8 to Venus/Rab6 (BRET)” value is on record as “little effect”. Moreover, the “proximity of AT1R/Rluc8 to Venus/Rab4 (BRET)” value in experiment [3] (early endosome recycling, FIG. 5E) is recorded as “increase”. Also, the “proximity of AT1R/Rluc8 to Venus/Rab5 (BRET)” value in experiment [3] (early endosomes, FIG. 5G) is given as “substantial increase”. The “proximity of AT1R/Rluc8 to Venus/Rab1 (BRET)” value in experiment [3] (endoplasmic reticulum to cis-Golgi, FIG. 5C) is “increase”. In addition, in experiment [3] (late endosome to trans-Golgi network, FIG. 5O), the “proximity of AT1R/Rluc8 to Venus/Rab9 (BRET)” value is “increase”. Further, the “proximity of AT1R/Rluc8 to Venus/Rab7 (BRET)” value in experiment [3] (late endosomes/lysosomes, FIG. 5K) is on record as “increase”. For the same substance, the “proximity of AT1R/Rluc8 to Venus/Kras (BRET)” value in experiment [3] (plasma membrane marker, FIG. 5A) is on record as “marked reduction”. For the same substance, the “proximity of AT1R/Rluc8 to Venus/Rab11a (BRET)” value in experiment [3] (recycling endosomes, FIG. 5Q) was “substantial increase”. For the same substance, in experiment [3] (trans-Golgi network to plasma membrane, FIG. 5M), the “proximity of AT1R/Rluc8 to Venus/Rab8 (BRET)” value was “small increase at later time-points”.
